Literature values, collected in article PMC9578396, “Intrinsic Antibacterial Activity of Xeruborbactam In Vitro: Assessing Spectrum and Mode of Action” (Antimicrobial Agents and Chemotherapy, 2022).

Molecular target: PBP2 (Klebsiella pneumoniae, UniProt A6T696)
Parameters: method as in PMID 29712652
Conditions: read-out: IC50, PBP2; value in parentheses; K. pneumoniae ATCC 43816; cited from earlier work

Sequence of PBP2 (A6T696 entry or part of it): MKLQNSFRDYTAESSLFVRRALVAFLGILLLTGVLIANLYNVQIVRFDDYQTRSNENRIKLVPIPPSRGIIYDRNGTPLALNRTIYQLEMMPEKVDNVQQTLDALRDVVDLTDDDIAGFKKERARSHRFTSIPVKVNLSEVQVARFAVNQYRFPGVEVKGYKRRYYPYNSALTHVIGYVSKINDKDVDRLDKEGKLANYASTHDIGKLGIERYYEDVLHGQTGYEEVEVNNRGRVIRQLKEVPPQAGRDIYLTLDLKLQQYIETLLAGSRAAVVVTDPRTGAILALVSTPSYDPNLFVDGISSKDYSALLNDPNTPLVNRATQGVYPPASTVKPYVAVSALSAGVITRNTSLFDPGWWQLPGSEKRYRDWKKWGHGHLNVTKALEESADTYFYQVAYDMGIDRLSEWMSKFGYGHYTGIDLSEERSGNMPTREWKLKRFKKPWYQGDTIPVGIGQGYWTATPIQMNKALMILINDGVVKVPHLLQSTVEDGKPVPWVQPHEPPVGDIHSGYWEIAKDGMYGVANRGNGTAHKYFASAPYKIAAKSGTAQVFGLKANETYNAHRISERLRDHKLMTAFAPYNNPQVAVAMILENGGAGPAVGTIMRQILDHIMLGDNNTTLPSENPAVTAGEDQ

Compound: C[C@@H](O)[C@H]1C(=O)N2C(C(=O)O)=C(S[C@@H]3CN[C@H](C(=O)N(C)C)C3)[C@H](C)[C@H]12 [Meropenem]
- IC50: < 20 nM
